# Assay results as given in ChEMBL document CHEMBL1201862, “PubChem BioAssay data set” (2004).
#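 How tested: cells in 96-well plates exposed to compound for 48 hours at five concentrations. The concentration for 50% growth inhibition is given as GI50.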 Activity calls are given as the source filed them. Cut-off read from the data, not from the text of the source: active = GI50 up to about 1.1 µM and inactive = higher.
# How the values were obtained:
# Test in all cases: NCI tumour cell line growth inhibition, 48 h
# M14 = system: M14
# NCI-H226 = system: NCI-H226
# DMS-114 = system: DMS-114
# UACC-257 = system: UACC-257
# EKVX = system: EKVX
# RXF 393 = system: RXF 393
# SF-539 = system: SF-539
# CCRF-CEM = system: CCRF-CEM
# RPMI-8226 = system: RPMI-8226
# OVCAR-3 = system: OVCAR-3
# OVCAR-8 = system: OVCAR-8
# U-251 = system: U-251
# NCI-H522 = system: NCI-H522
# HT-29 = system: HT-29
# HCT-15 = system: HCT-15
# CAKI-1 = system: CAKI-1
# A549 = system: A549
# SW-620 = system: SW-620
# SR = system: SR
# SK-OV-3 = system: SK-OV-3
Structure (SMILES),GI50 (M14),GI50 (NCI-H226),GI50 (DMS-114),GI50 (UACC-257),GI50 (EKVX),GI50 (RXF 393),GI50 (SF-539),GI50 (CCRF-CEM),GI50 (RPMI-8226),GI50 (OVCAR-3),GI50 (OVCAR-8),GI50 (U-251),GI50 (NCI-H522),GI50 (HT-29),GI50 (HCT-15) [µM],GI50 (CAKI-1),GI50 (A549),GI50 (SW-620),GI50 (SR),GI50 (SK-OV-3)
CN(C)CCC(=O)N1C/C(=C/c2ccccc2)C(=O)/C(=C\c2ccccc2)C1,1.91 µM (inactive),5.55 µM (inactive),1.41 µM (inactive),2.08 µM (inactive),3.78 µM (inactive),2.11 µM (inactive),3.91 µM (inactive),0.191 µM (active),0.134 µM (active),2.59 µM (inactive),1.03 µM (active),0.662 µM (active),0.301 µM (active),0.679 µM (active),1.05,2.41 µM (inactive),4.7 µM (inactive),0.275 µM (active),0.386 µM (active),6.25 µM (inactive)
O=c1c(-c2ccccc2)c(O)nc2[nH]c3ccccc3n12,> 100 µM (inactive),> 100 µM (inactive),> 100 µM (inactive),> 100 µM (inactive),> 100 µM (inactive),> 100 µM (inactive),> 100 µM (inactive),> 100 µM (inactive),> 100 µM (inactive),> 100 µM (inactive),> 100 µM (inactive),> 100 µM (inactive),> 100 µM (inactive),> 100 µM (inactive),> 100,> 100 µM (inactive),> 100 µM (inactive),> 100 µM (inactive),68.1 µM (inactive),> 100 µM (inactive)
O=C(NC12CC3CC(CC(C3)C1)C2)C(=O)c1c[nH]c2ccc(Br)cc12,7.05 µM (inactive),20.2 µM (inactive),65.9 µM (inactive),43.4 µM (inactive),73.1 µM (inactive),2.43 µM (inactive),19 µM (inactive),3.86 µM (inactive),6.67 µM (inactive),11.2 µM (inactive),18.1 µM (inactive),12.1 µM (inactive),56 µM (inactive),3.71 µM (inactive),5.79,39.3 µM (inactive),14.4 µM (inactive),25 µM (inactive),10 µM (inactive),25.9 µM (inactive)
COc1cc2c(c(OC)c1OC)-c1ccc(OC)c(=O)cc1C(NC(=O)c1ccc(N=[N+]=[N-])cc1)CC2 (stereo not given),0.037 µM (active),0.451 µM (active),0.0257 µM (active),0.615 µM (active),0.132 µM (active),0.0185 µM (active),0.0238 µM (active),0.0316 µM (active),0.0359 µM (active),0.0255 µM (active),0.0335 µM (active),0.0307 µM (active),0.0175 µM (active),0.0288 µM (active),0.111,0.032 µM (active),0.0408 µM (active),0.0312 µM (active),0.0435 µM (active),0.0292 µM (active)
COC(=O)Cc1cc(O)c2c(c1O)C(=O)c1ccccc1C2=O,> 100 µM (inactive),92.3 µM (inactive),> 100 µM (inactive),> 100 µM (inactive),> 94.2 µM (inactive),30.3 µM (inactive),35.9 µM (inactive),> 52.6 µM (inactive),> 67.5 µM (inactive),> 71.9 µM (inactive),> 100 µM (inactive),27.9 µM (inactive),> 100 µM (inactive),> 46.5 µM (inactive),> 100,> 100 µM (inactive),> 100 µM (inactive),> 100 µM (inactive),> 100 µM (inactive),58.3 µM (inactive)
COC(=O)C12C3C4C5C3(C#N)C1C5(C(=O)OC)C42C(=O)N(C(C)C)C(C)C (stereo not given),> 100 µM (inactive),> 100 µM (inactive),> 100 µM (inactive),> 100 µM (inactive),> 100 µM (inactive),> 100 µM (inactive),> 100 µM (inactive),> 46 µM (inactive),> 48.6 µM (inactive),> 100 µM (inactive),> 63 µM (inactive),> 78 µM (inactive),> 33.4 µM (inactive),> 100 µM (inactive),> 42.2,> 100 µM (inactive),> 100 µM (inactive),> 26.7 µM (inactive),13.9 µM (inactive),> 100 µM (inactive)
CN(C)C(=S)/N=c1\ss/c(=N\C(=S)N(C)C)n1-c1ccc(Cl)c(Cl)c1,> 100 µM (inactive),> 100 µM (inactive),> 100 µM (inactive),> 100 µM (inactive),> 100 µM (inactive),89.9 µM (inactive),> 100 µM (inactive),> 100 µM (inactive),> 100 µM (inactive),> 100 µM (inactive),> 100 µM (inactive),> 100 µM (inactive),> 100 µM (inactive),> 100 µM (inactive),> 100,> 100 µM (inactive),> 100 µM (inactive),> 100 µM (inactive),> 100 µM (inactive),> 100 µM (inactive)
O=C(Nc1ccn(CCI)c(=O)n1)c1ccccc1,> 100 µM (inactive),> 100 µM (inactive),> 100 µM (inactive),> 100 µM (inactive),> 100 µM (inactive),> 100 µM (inactive),> 100 µM (inactive),> 100 µM (inactive),> 100 µM (inactive),> 100 µM (inactive),> 100 µM (inactive),> 100 µM (inactive),> 100 µM (inactive),> 100 µM (inactive),> 100,> 100 µM (inactive),> 100 µM (inactive),> 100 µM (inactive),> 100 µM (inactive),> 100 µM (inactive)
CN(C)[C@@H]1C(O)=C(C(=O)NCNc2nc3[nH]nnc3c(=O)[nH]2)C(=O)[C@@]2(O)C(O)=C3C(=O)c4c(O)cccc4[C@@](C)(O)[C@H]3C[C@@H]12,0.557 µM (active),1.73 µM (inactive),1.52 µM (inactive),1.28 µM (inactive),12.4 µM (inactive),0.518 µM (active),0.641 µM (active),0.228 µM (active),0.272 µM (active),25.9 µM (inactive),0.817 µM (active),2.15 µM (inactive),20.4 µM (inactive),43.7 µM (inactive),42.5,0.557 µM (active),55.3 µM (inactive),0.471 µM (active),0.312 µM (active),0.723 µM (active)
CCN(CC)CCNc1ccc2nnn3c4ccccc4c(=O)c1c23,3.86 µM (inactive),2.01 µM (inactive),6.55 µM (inactive),4.48 µM (inactive),4.13 µM (inactive),6.21 µM (inactive),6.84 µM (inactive),2.86 µM (inactive),2.45 µM (inactive),5.07 µM (inactive),3.15 µM (inactive),3.27 µM (inactive),4.75 µM (inactive),2.51 µM (inactive),4.51,3.15 µM (inactive),3.59 µM (inactive),1.43 µM (inactive),1.15 µM (inactive),17.4 µM (inactive)
